Values belong to the compound of their own block, whether it stands above or below them.
Columns and labels:
[1] = tested on: Salmonella typhimurium TA98 and TA100; experiment: Reverse mutation test (Ames test), overall judgment; type: cell-based; settings: TA98 and TA100, with and without S9mix
Protocol: (§1) In order to examine mutagenicity of Compound I-1, I-2, I-4 and I-5, reverse mutation test using Salmonella typhimurium TA98 and TA100 (hereinafter referred to as Ames test) was conducted.
(§2) The test was conducted without addition of S9mix and with addition of S9mix. Dimethylsulfoxide was used as a negative control. A positive control was 2-(2-furyl)-3-(5-nitro-2-furyl)acrylamide in case S9mix was not added, and 2-aminoanthracene in case S9mix was added.
(§3) The amount of each sample to be added to the test plate was 7 dosages (geometric ratio 4) with the maximum dose being 1250 μg/plate for Compounds I-1 and I-5, and 7 dosages (geometric ratio 3) with the maximum dose being 5000 μg/plate for Compounds I-2 and I-4. After a sample to be examined and a strain (TA98 or TA100), or a sample to be examined, S9mix and the strain were mixed together, the mixture was multilayered using soft agar on a medium of a test plate, and then incubated at 37° C. for 48 hours.

[2] = tested on: Salmonella typhimurium TA98; experiment: Reverse mutation test (Ames test), TA98; type: cell-based
Protocol: as §1, §2, §3

[3] = tested on: Salmonella typhimurium TA100; experiment: Reverse mutation test (Ames test), TA100; type: cell-based
Protocol: as §1, §2, §3

[4] = tested on: bone marrow cells of Crlj:CD1(ICR) male mouse; experiment: Micronucleus test; type: in vivo; settings: for appearance frequency of MNPCE as compared to the negative control group: 24 and 48 hours after single administration
Protocol: In order to study mutagenicity (in vivo) of Compound I-4, induction of micronucleated polychromatic erythrocyte (hereinafter referred to as MNPCE) was examined using bone marrow cells of Crlj:CD1(ICR) male mouse.
0 mg/kg (negative control group), 250, 500, 1000 and 2000 mg/kg (test sample group) were set as doses for the test. Mice were sacrificed 24 and 48 hours after single oral administration, and bone marrow smear was prepared and observed. Further, a single dose of MMC at 2 mg/kg was abdominally administrated in positive control group, mice were sacrificed 24 hours after the administration, and then bone marrow smear was prepared and observed.
As statistical analysis, significance tests were conducted by Wilcoxon rank sum test for the appearance frequency of MNPCE and the ratio of polychromatic erythrocyte (hereinafter referred to as PCE) to the total red blood cell (hereinafter referred to as RBC) in each administration group concerning the test sample and positive control groups relative to the negative control group and concerning these groups relative to each other where the significance level was set to less than 5% and less than 1%, respectively.

[5] = tested on: Chinese Hamster fibroblast cell line (CHL/IU cell); experiment: Chromosome aberration test; type: cell-based; settings: short-term treatment with or without S9 and 24-hour continuous treatment; 0.15-1.2 mg/mL
Protocol: In order to examine whether Compound I-4 can induce chromosome aberration, the chromosome aberration test was conducted using Chinese Hamster fibroblast cell line (CHL/IU cell) in a culture system with or without addition of S9 by short-term treatment process and in a 24-hour culture system by continuous treatment process. The addition amount of a sample to be tested was set to 1.2, 0.6, 0.3, and 0.15 mg/mL for all the respective culture systems.

[6] = Transferability into brain and clearance, Examples I-20 to I-21; type: in vivo, male Wistar rats; settings: rats, intravenous injection, Table 1-7
From the text: Three animals were used for Experiment I-20 and Comparative Experiment I-9, and two animals were used for Experiment I-21 at the respective time points.

[7] = Transferability into brain and clearance, Examples II-10 to II-11; type: in vivo, male Wistar rats; settings: rats, intravenous injection, Table 2-5
Protocol: 0.05 mL each of the prepared sample solutions was injected under thiopental anesthesia into the tail vein of the rats. The rats were sacrificed by bleeding from abdominal artery, and brains were removed and subjected to measurement of mass of brains and further subjected to measurement of radioactivity (hereinafter referred to as A in this Example) with a single channel analyzer (detector type SP-20 manufactured by OHYO KOKEN KOGYO Co., Ltd.) 2, 5, 30, and 60 minutes after the injection. Further, the radioactivity level of the rest of the whole body was measured in the same manner as above (hereinafter referred to as B in this Example). Using these measurement results, radioactive distribution per unit weight of brain (% ID/g) at the respective time points were calculated in accordance with the following formula (2-3).
Three animals were used for the experiment at the respective time points.

[8] = tested on: intracerebral amyloid (aggregated Aβ1-42 injected into amygdaloid nucleus); experiment: Confirmation of imaging of amyloid in brain (ex vivo autoradiogram), Examples II-12 and II-13; set-up: species or system male Wistar rat; settings: for radioactive accumulation at sites other than amyloid injected sites: autoradiogram, 60 minutes after tail vein injection; for accumulation of radioactivity in amygdaloid nucleus on the side to which the physiological saline solution was injected: brain slice 60 minutes after tail vein injection
Protocol: (§4) The same procedures as in Example II-12 were performed except using a 10 mg/mL solution of Compound II-2 in ascorbic acid (the radioactive concentration of the sample solution was 25 MBq/mL).

[9] = molecular target: T1, intracerebral amyloid (aggregated Aβ1-42 injected into amygdaloid nucleus) (Homo sapiens, UniProt P05067); experiment: as above; set-up: species or system male Wistar rat; settings: brain slice 60 minutes after tail vein injection
T1 construct: Aβ1-42 (Wako) was dissolved in phosphate buffer (pH 7.4); purchased Wako
T1 sequence (P05067 672-713): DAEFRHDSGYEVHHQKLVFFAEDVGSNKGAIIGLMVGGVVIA
Protocol: as §4

[10] = Partition coefficient based on the octanol extraction method, Examples II-8 to II-9; type: physicochemical; settings: octanol / 10 mmol/L phosphate buffer (pH 7.4); Table 2-4
Protocol: To 2 mL of octanol, 10 μL each of the prepared sample solutions was added, 2 mL of 10 mmol/L phosphate buffer (pH 7.4) was added, followed by stirring for 30 seconds. After the mixture was centrifuged with a low-speed centrifuge (2000 rpm×60 min.), the octanol layer and the water layer were sampled each in an amount of 1 mL, and subjected to measurement of radioactivity count with an autowell gamma system (Type: ARC-301B, manufactured by Aloka). Using the obtained radioactivity count, log Poctanol was calculated in accordance with the equation (2-2).

[11] = molecular target: T2, amyloid (aggregated Aβ1-42) (Homo sapiens, UniProt P05067); experiment: Measurement of affinity with amyloid (inhibition of [125I]3′-I-BTA-0 binding), Example II-7; settings: [125I]3′-I-BTA-0 400 pmol/L, amyloid 1 μmol/L, 1% bovine serum albumin-containing phosphate buffer (pH 7.4)
T2 construct: Aβ1-42 (Wako) was dissolved in phosphate buffer (pH 7.4); purchased Wako
T2 sequence (P05067 672-713 limits assumed): as the sequence (P05067 672-713) above
From the text: Then, each sample solution was filtered through a glass fiber filter (trade name: Mulutiscreen™-FC, manufactured by Millipore), to separate the [^125I]3′-I-BTA-0 attached to amyloid from the free [^125I]3′-I-BTA-0.
The measured radioactivity level was defined as the background radioactivity level, and used in the calculation of the inhibition ratio (hereinafter referred to as BG).
A graph in which values converted by probit transformation from the obtained inhibition ratios were plotted relative to logarithms of concentrations of compounds for evaluation was prepared to obtain an approximate straight line by the least square method.

[12] = International Publication WO03/106439 pamphlet; cited from earlier work
[13] = normal mice, [125I]-labeled, cited from earlier work; for transfer into brain: 2 minutes after administration

SMILES: FCCCOc1ccc(-c2cn3cc(Br)ccc3n2)cc1 [Compound I-1, 6-bromo-2-[4′-(3″-fluoropropoxy)phenyl]imidazo[1,2-a]pyridine]
- judgment in the Ames test [1]: negative
- Mutagenicity, TA98 ([2]; With addition of S9mix): Negative
- Mutagenicity, TA98 ([2]; Without addition of S9mix): Negative
- Mutagenicity, TA100 ([3]; With addition of S9mix): Negative
- Mutagenicity, TA100 ([3]; Without addition of S9mix): Negative

SMILES: FCCCOc1ccc(-c2cn3cc(I)ccc3n2)cc1 [Compound I-2, 2-[4′-(3″-fluoropropoxy)phenyl]-6-iodoimidazo[1,2-a]pyridine]
- judgment in the Ames test [1]: negative
- Mutagenicity, TA98 ([2]; With addition of S9mix): Negative
- Mutagenicity, TA98 ([2]; Without addition of S9mix): Negative
- Mutagenicity, TA100 ([3]; With addition of S9mix): Negative
- Mutagenicity, TA100 ([3]; Without addition of S9mix): Negative

SMILES: FCCOc1ccc(-c2cn3cc(I)ccc3n2)cc1 [Compound I-4, 2-[4′-(2″-fluoroethoxy)phenyl]-6-iodoimidazo[1,2-a]pyridine]
- judgment in the Ames test [1]: negative
- appearance frequency of MNPCE as compared to the negative control group ([4]; mouse bone marrow): no statistically significant difference
- ratio of PCE to RBC as compared to the negative control group ([4]; mouse bone marrow, 24 and 48 hours after single oral administration, 250-2000 mg/kg): no statistically significant difference
- mutagenicity (in vivo) judgment ([4]; single oral administration, 250-2000 mg/kg): negative
- Mutagenicity, TA98 ([2]; With addition of S9mix): Negative
- Mutagenicity, TA98 ([2]; Without addition of S9mix): Negative
- appearance frequency of cells having structural aberration or numerical aberration (diploid) [5]: comparable to that of the negative control group
- capability of inducing chromosome aberration (judgment) [5]: negative
- Mutagenicity, TA100 ([3]; With addition of S9mix): Negative
- Mutagenicity, TA100 ([3]; Without addition of S9mix): Negative

SMILES: FCCCOc1ccc(-c2cn3cc(I)cnc3n2)cc1 [Compound I-5, 2-[4′-(3″-fluoropropoxy)phenyl]-6-iodoimidazo[1,2-a]pyrimidine]
- judgment in the Ames test [1]: negative
- Mutagenicity, TA98 ([2]; With addition of S9mix): Negative
- Mutagenicity, TA98 ([2]; Without addition of S9mix): Negative
- Mutagenicity, TA100 ([3]; With addition of S9mix): Negative
- Mutagenicity, TA100 ([3]; Without addition of S9mix): Negative

- Radioactive distribution in brain per unit weight, After 2 min. ([6]; 2 min.): 1.20 % ID/g
- Radioactive distribution in brain per unit weight, After 5 min. ([6]; 5 min.): 0.75 % ID/g
- Radioactive distribution in brain per unit weight, After 30 min. ([6]; 30 min.): 0.18 % ID/g
- Radioactive distribution in brain per unit weight, After 60 min. ([6]; 60 min.): 0.12 % ID/g
SMILES: [18F]CCCOc1ccc(-c2cn3cc(Br)ccc3n2)cc1 [Compound I-8, 6-bromo-2-[4′-(3″-[^18F]fluoropropoxy)phenyl]imidazo[1,2-a]pyridine]

SMILES: OCCOc1ccc(-c2cn3cc([123I])ccc3n2)cc1 [Compound II-1, 2-[4′-(2″-hydroxyethoxy)phenyl]-6-[^123I]iodoimidazo[1,2-a]pyridine]
- Radioactive distribution in brain per unit weight, After 2 min. [7]: 0.90 % ID/g
- Radioactive distribution in brain per unit weight, After 5 min. [7]: 0.52 % ID/g
- Radioactive distribution in brain per unit weight, After 30 min. [7]: 0.06 % ID/g
- Radioactive distribution in brain per unit weight, After 60 min. [7]: 0.01 % ID/g
- radioactive accumulation at sites other than amyloid injected sites [8]: little radioactive accumulation at the sites other than amyloid injected sites
- accumulation of radioactivity in amygdaloid nucleus on the side to which the physiological saline solution was injected [8]: no significant accumulation of radioactivity
- accumulation of radioactivity in amygdaloid nucleus on the side to which the amyloid suspension was injected [9]: marked accumulation of radioactivity
- logPoctanol value [10]: 1.8

- Radioactive distribution in brain per unit weight, After 2 min. [7]: 0.89 % ID/g
- Radioactive distribution in brain per unit weight, After 5 min. [7]: 0.66 % ID/g
- Radioactive distribution in brain per unit weight, After 30 min. [7]: 0.13 % ID/g
- Radioactive distribution in brain per unit weight, After 60 min. [7]: 0.04 % ID/g
- accumulation of radioactivity in amygdaloid nucleus on the side to which the amyloid suspension was injected [9]: marked accumulation of radioactivity
- logPoctanol value [10]: 2.1
SMILES: CCOc1ccc(-c2cn3cc([123I])ccc3n2)cc1 [Compound II-2, 2-(4′-ethoxyphenyl)-6-[^123I]iodoimidazo[1,2-a]pyridine]
- radioactive accumulation at sites other than amyloid injected sites [8]: some radioactive accumulation in sites other than amyloid injected sites, but the accumulation was highly suppressed as compared to ^123I-IMPY
- accumulation of radioactivity in amygdaloid nucleus on the side to which the physiological saline solution was injected [8]: no significant accumulation of radioactivity

- IC50 [11]: < 100 nM
SMILES: OCCOc1ccc(-c2cn3cc(I)ccc3n2)cc1 [Compound II-3, 2-[4′-(2″-hydroxyethoxy)phenyl]-6-iodoimidazo[1,2-a]pyridine]

- IC50 [11]: > 1000 nM
SMILES: Nc1c(/N=N/c2ccc(-c3ccc(/N=N/c4cc(S(=O)(=O)O)c5ccccc5c4N)cc3)cc2)cc(S(=O)(=O)O)c2ccccc12 [Congo Red, reference compound]

SMILES: CC(=C(C#N)C#N)c1ccc2cc(N(C)CCF)ccc2c1 [FDDNP, 2-(1-{6-[(2-fluoroethyl)(methyl)amino]-2-naphthyl}ethylidene)malononitrile]
- reverse mutation test result [12]: positive

SMILES: CN(C)c1ccc(-c2nc3ccc(I)cc3o2)cc1 [IBOX, 6-iodo-2-[4′-(N,N-dimethylamino)phenyl]benzoxazole]
- transfer into brain [13]: transferred into brain
- clearance from normal tissues [13]: insufficient in clearance from normal tissues

SMILES: CO[C@@]12[C@H](COC(N)=O)C3=C(C(=O)C(C)=C(N)C3=O)N1C[C@@H]1N[C@@H]12 [MMC, reference compound]
- appearance frequency of MNPCE as compared to the negative control group ([4]; mouse bone marrow): significant increase

SMILES: CN(C)c1ccc(-c2nc3ccc(I)cc3s2)cc1 [TZDM, 6-iodo-2-[4′-(N,N-dimethylamino)phenyl]benzothiazole]
- transfer into brain [13]: transferred into brain
- clearance from normal tissues [13]: insufficient in clearance from normal tissues

SMILES: CN(C)c1ccc(/C=C/c2ccc(I)cc2)cc1 [m-I-SB, (E)-4-dimethylamino-4′-iodostilbene]
- transfer into brain [13]: transferred into brain
- clearance from normal tissues [13]: insufficient in clearance from normal tissues
